According to patent publication US8999973B2, “Thieno[3,2-d]pyrimidine derivatives having inhibitory activity on protein kinases” (Hanmi Science Co., Ltd, priority 2010, dated 2015):
Residue numbers refer to the chain shown, from its start.

Columns and labels:
Bcr-Abl^wt = molecular target: T1, Bcr-Abl^wt (Homo sapiens, UniProt P00519); assay: Kinase activation assay (IC50), fluorescence polarization tyrosine kinase assay kit; format: biochemical; conditions: kinase domain (Millipore), Poly (Glu, Tyr) 4:1 substrate, FP readout
T1 construct: purchased Millipore
T1 sequence (P00519 242-493 limits assumed): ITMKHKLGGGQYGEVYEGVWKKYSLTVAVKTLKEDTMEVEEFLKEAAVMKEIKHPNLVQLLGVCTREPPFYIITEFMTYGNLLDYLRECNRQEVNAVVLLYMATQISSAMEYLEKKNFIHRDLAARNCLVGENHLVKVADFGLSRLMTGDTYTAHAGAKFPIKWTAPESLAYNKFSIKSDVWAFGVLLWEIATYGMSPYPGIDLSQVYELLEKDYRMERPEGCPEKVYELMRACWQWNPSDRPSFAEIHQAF
Description: (§1) Test 1: Kinase Activation Assay (IC50)
(§2) A kinase domain (Millipore) comprising the entire cytoplasmic sequences of Bcr-Abl^wt and Bcr-Abl^T315I mutation kinases and a tyrosine kinase assay kit (Panvera, P2837) were used to measure an inhibitory activation on Bcr-abl. Other kinases such as FGFR, Flt, KDR, PDGFR, Fms, Kit, Raf, Tie2, Src, and Ret were also measured by the same method. In order to prepare a sample, the each compound obtained in Examples 1 to 128 was diluted 10 times with a kinase buffer to a concentration of 10˜0.0001 μM.
(§3) The each kinase was diluted with a kinase buffer to a concentration of 30˜300 ng/assay by using the each Kd value. The kinase buffer consisted of 100 mM HEPES (PH 7.4), 25 mM MgCl2, 10 mM MnCl2, and 250 μM Na3VO4, being kept refrigerated after filtered.
(§4) The test was conducted in 96 well polystyrene round bottom plates. First, 10 μL of the diluted sample was combined with 10 μL of the enzyme solution at room temperature for 10 minutes using a shaker. 10 μL of Poly (Glu, Tyr) 4:1 (Sigma) matrix solution in an appropriate concentration and 10 μL of ATP solution (5˜300 μM) were added to the sample and subjected to a reaction at room temperature for 60 minutes in a shaker. After 60 minutes, an EDTA solution was added thereto to complete the kinase reaction and the reaction mixture was left in a shaker for 5 minutes at room temperature. A tracer, an antibody, and a fluorescence polarization (FP) diluted reaction solution were mixed at a ratio of 1:1:3 to prepare a detecting solution, 50 μL of which was added to the each sample and subjected to a reaction at room temperature for 30 minutes in a shaker. As fluorescing, light was blocked out and the FP value was measured using a FP instrument (excitation wavelength: 485 nm, and emission wavelength: 530 nm).
(§5) And the inhibition on kinase reaction was calculated for the sample in the range of 0˜100% as compared to the control group, and the concentration on x-axis at 50% inhibition was obtained as an inhibitory concentration (IC50) value.
(§6) 50% inhibitory concentration (IC50) Y=bottom+(top−bottom)/(1+10exp(X−log IC50)

Bcr-Abl^T315I = molecular target: T2, Bcr-Abl^T315I (Homo sapiens, UniProt P00519, T315I); assay: as above; format: biochemical; conditions: T315I mutation kinase domain (Millipore), Poly (Glu, Tyr) 4:1 substrate, FP readout
T2 construct: purchased Millipore
T2 sequence (P00519 242-493 T315I limits assumed): T1 sequence (P00519 242-493 limits assumed) with T74I
Description: as §1, §2, §3, §4, §5, §6

Row | Structure (SMILES) | IC50 (Bcr-Abl^wt) [nM] | IC50 (Bcr-Abl^T315I) [nM]
1 | CCN1CCN(c2cc(C(=O)Nc3ccc(C)c(NC(=O)c4csc5c(NC6CC6)ncnc45)c3)cc(C(F)(F)F)c2)CC1 [Example 110, 4-(cyclopropylamino)-N-(5-(3-(4-ethylpiperazin-1-yl)-5-(trifluoromethyl)benzoamido)-2-methylphenyl)thieno[3,2-d]pyrimidine-7-carboxamide] | 1 to 100 | 100 to 1000
2 | COc1cccc(C(=O)Nc2ccc(C)c(NC(=O)c3csc4c(N)ncnc34)c2)c1 [Example 65, 4-amino-N-(5-(3-methoxybenzamido)-2-methylphenyl)thieno[3,2-d]pyrimidine-7-carboxamide] | 1 to 100 | 1000 to 10000
3 | COc1cc(C(=O)Nc2ccc(C)c(NC(=O)c3csc4c(N)ncnc34)c2)nc2ccccc12 [Example 56, 4-amino-N-(5-(4-methoxyquinoline-2-carboxyamido)-2-methylphenyl)thieno[3,2-d]pyrimidine-7-carboxamide] | 100 to 1000 | 1000 to 10000
4 | Cc1ccc(NC(=O)c2cc(-n3ccnc3C)cc(C(F)(F)F)c2)cc1NC(=O)c1csc2c(N)ncnc12 [Example 61, 4-amino-N-(2-methyl-5-(3-(2-methyl-1H-imidazole-1-yl)-5-(trifluoromethyl)benzamido)phenyl)thieno[3,2-d]pyrimidine-7-carboxamide] | 1 to 100 | 1 to 100
5 | CC(=O)OCc1ccc(NC(=O)c2ccc(C)c(NC(=O)c3csc4c(NC5CC5)ncnc34)c2)cc1C(F)(F)F [Example 23, 4-(3-(4-(cyclopropylamino)thieno[3,2-d]pyrimidine-7-carboxamido)-4-methylbenzamido)-2-(trifluoromethyl)benzyl acetate] | 1 to 100 | 1000 to 10000
6 | CCN1CCN(c2cc(NC(=O)c3ccc(C)c(/C=C/c4csc5c(N)ncnc45)c3)cc(C(F)(F)F)c2)CC1 [Example 3, (E)-3-(2-(4-aminothieno[3,2-d]pyrimidine-7-yl)vinyl)-N-(3-(4-ethylpiperazine-1-yl)-5-(trifluoromethyl)phenyl)-4-methylbenzamide] | 1 to 100 | 1000 to 10000
7 | CN(C)[C@H]1CCN(c2cc(C(=O)Nc3ccc(F)c(NC(=O)c4csc5c(NC6CC6)ncnc45)c3)cc(C(F)(F)F)c2)C1 [Example 107, (S)-4-(cyclopropylamino)-N-(5-(3-(3-(dimethylamino)pyrrolidine-1-yl)-5-(trifluoromethyl)benzoamido)-2-fluorophenyl)thieno[3,2-d]pyrimidine-7-carboxamide] | 1 to 100 | 100 to 1000
8 | Cc1cn(-c2cc(C(=O)Nc3ccc(F)c(NC(=O)c4csc5c(NC6CC6)ncnc45)c3)cc(C(F)(F)F)c2)cn1 [Example 121, 4-(cyclopropylamino)-N-(2-fluoro-5-(3-(4-methyl-1H-imidazole-1-yl)-5-(trifluoromethyl)benzoamido)phenyl)thieno[3,2-d]pyrimidine-7-carboxamide] | 1 to 100 | 1 to 100
9 | Cc1ccc(NC(=O)c2ccc(C(F)(F)F)cc2)cc1NC(=O)c1csc2c(N)ncnc12 [Example 66, 4-amino-N-(2-methyl-5-(4-(trifluoromethyl)benzamido)phenyl)thieno[3,2-d]pyrimidine-7-carboxamide] | 100 to 1000 | 1000 to 10000
10 | CCN1CCN(c2ccc(NC(=O)c3ccc(C)c(NC(=O)c4csc5c(NC6CC6)ncnc45)c3)cn2)CC1 [Example 30, 4-(cyclopropylamino)-N-(5-(6-(4-ethylpiperazine-1-yl)pyridine-3-ylcarbamoyl)-2-methylphenyl)thieno[3,2-d]pyrimidine-7-carboxamide] | 1000 to 10000 | 1000 to 10000
11 | Cc1ccc(NC(=O)c2cc(NC3CCN(C)CC3)cc(C(F)(F)F)c2)cc1NC(=O)c1csc2c(NC3CC3)ncnc12 [Example 116, 4-(cyclopropylamino)-N-(2-methyl-5-(3-(1-methylpiperidine-4-ylamino)-5-(trifluoromethyl)benzoamido)phenyl)thieno[3,2-d]pyrimidine-7-carboxamide] | 1 to 100 | 1 to 100
12 | COc1cc(NC(=O)c2ccc(C)c(NC(=O)c3csc4c(N)ncnc34)c2)cc(OC)c1 [Example 12, 4-amino-N-(5-(3,5-dimethoxyphenylcarbamoyl)-2-methylphenyl)thieno[3,2-d]pyrimidine-7-carboxamide] | 1 to 100 | 100 to 1000
13 | Cc1ccc(C(=O)Nc2ccc(CO)c(C(F)(F)F)c2)cc1NC(=O)c1csc2c(NC3CC3)ncnc12 [Example 24, 4-(cyclopropylamino)-N-(5-(4-(hydroxymethyl)-3-(trifluoromethyl)phenylcarbamoyl)-2-methylphenyl)thieno[3,2-d]pyrimidine-7-carboxamide] | 1 to 100 | 1 to 100
14 | Cc1ccc(NC(=O)c2cccc(C(F)(F)F)c2)cc1NC(=O)c1csc2c(N)ncnc12 [Example 39, 4-amino-N-(2-methyl-5-(3-(trifluoromethyl)benzamido)phenyl)thieno[3,2-d]pyrimidine-7-carboxamide] | 1 to 100 | 1 to 100
15 | Cc1ccc(C(=O)Nc2ccc(N3CCOCC3)nc2)cc1NC(=O)c1csc2c(NC3CC3)ncnc12 [Example 29, 4-(cyclopropylamino)-N-(2-methyl-5-(6-morpholinopyridine-3-ylcarbamoyl)phenyl)thieno[3,2-d]pyrimidine-7-carboxamide] | 1 to 100 | 1000 to 10000
